{"source": "patent US7728040B1", "about": "“Polyamine conjugates as selective NMDA inhibitors and anti-cancer drugs” (University of Central Florids Research Foundation, Inc., priority 2002, dated 2010)", "key": {"[1]": {"tested_on": "L1210 cells", "test": "Cytotoxicity in L1210 cells", "assay_type": "cell-based", "conditions": "Mus musculus; L1210 cells, no DFMO; read-out: L1210 IC50"}, "[2]": {"tested_on": "L1210 cells + DFMO", "test": "Cytotoxicity in L1210 cells pretreated with DFMO", "assay_type": "cell-based, mouse", "conditions": "Mus musculus; L1210 cells pretreated with DFMO; read-out: L1210 + DFMO IC50"}, "[3]": {"tested_on": "polyamine transporter", "test": "Ki, affinity for the polyamine transporter in L1210 cells", "assay_type": "binding, mouse", "description": "Biological Evaluation. Three cell lines were chosen for bioassay. L1210 (mouse leukemia) cells were selected for comparison with the published IC50 and Ki values determined for a variety of polyamine substrates. In this regard both Ki and IC50 values were measured in this line for comparison purposes. Chinese hamster ovary (CHO) cells were chosen along with a mutant cell line (CHO-MG) in order to comment on polyamine transporter affinity and cell selectivity. The CHO-MG cell line is polyamine-transport deficient and was isolated after chronic selection for growth resistance to methylglyoxalbis (guanylhydrazone). For the purposes of this study, the CHO-MG cell line represents cells with limited polyamine transport activity. In contrast, the parent CHO cell line illustrates cell types with active polyamine transport. Comparison of efficacy in these two lines provided an important screen to detect conjugate delivery via the polyamine transporter, PAT. For example, a conjugate with high utilization of the transporter would be very toxic to CHO cells, but less so to CHO-MG cells. Therefore, IC50 determination in these two CHO lines provided a relative ranking of delivery via the PAT."}, "[4]": {"tested_on": "CHO-MG cells", "test": "Cytotoxicity in CHO-MG cells (polyamine-transport deficient)", "assay_type": "cell-based, Chinese hamster", "conditions": "Cricetulus griseus, polyamine-transport deficient line, read-out: CHO-MG IC50"}, "[5]": {"tested_on": "CHO cells", "test": "Cytotoxicity in CHO cells (active polyamine transporter)", "assay_type": "cell-based, Chinese hamster"}, "[6]": {"test": "Metabolic de-alkylation to homospermidine in treated cells", "assay_type": "in vitro ADME", "conditions": "cells treated with compound", "excerpt": "N-Alkylpolyamines can be broken down into their de-alkylated components by cellular metabolic pathways. For example, a N-alkyl-4,4-triamine ([…]2, where R is alkyl) can be converted into homospermidine, H2N(CH2)4NH(CH2)4NH2."}}, "data": [{"smiles": "Cl.Cl.Cl.NCCCCN(CCCCN)Cc1c2ccccc2cc2ccccc12", "note": "[Compound 8e, N-(4-Amino-butyl)-N-anthracen-9-ylmethyl-butane-1,4-diamine, trihydrochloride]", "values": [{"measurement": "IC50", "setting": "[1]", "value": 300, "unit": "nM"}, {"measurement": "IC50", "setting": "[2]", "value": 150, "unit": "nM"}, {"measurement": "Ki", "setting": "[3]", "value": 1800, "unit": "nM"}, {"measurement": "IC50", "setting": "[4]", "value": 66700, "unit": "nM"}, {"measurement": "IC50", "setting": "[5]; Cricetulus griseus, CHO, active polyamine transporter, read-out: CHO IC50", "value": 450, "unit": "nM"}, {"measurement": "CHO-MG/CHO IC50 ratio", "setting": "[5]; selectivity for cells with active polyamine transporter, trihydrochloride", "value": 148}, {"measurement": "formation of homospermidine in treated cells (de-alkylation)", "setting": "[6]", "value": "did not form homospermidine"}]}]}
